Data reported in paper PMC10447463, “Data-mining unveils structure–property–activity correlation of viral infectivity enhancing self-assembling peptides” (Nature Communications, 2023).
Where two headings read alike, the source gives them in different places.

Tests used:
[1] = Zeta-potential measurement; assay type: physicochemical; settings: for Zeta-pot. / mV: zeta potential of peptide, Fig S15 source data
Procedure, shortened: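 Peptides diluted from DMSO stock into PBS pH 7.4 to 1 mg/mL and aged 1 d at RT, then diluted into 1 mM aqueous KCl. Zeta potential derived from electrophoretic mobility via Smoluchowski; triplicates, averaged over two independent experiments.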

[2] = system: HIV-1 infection of TZM-bl cells; test: HIV-1 infectivity enhancement assay, β-galactosidase luminescence; assay type: cell-based; settings: for Log10 Infection Rel EF-C: HIV-1 infection of TZM-bl cells
[3] = Turbidity, derived count rate of scattered light; assay type: physicochemical
Procedure, shortened: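 Samples: 1 mg/mL in PBS pH 7.4 (from DMSO), 1 d at RT, then diluted in 1 mM KCl immediately before measurement. Triplicates, two independent runs averaged.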

[4] = Feb2021, 1.3 µM value relative to virus only (0 µM)
[5] = Feb2021, Log10 of infectivity relative to EF-C
[6] = Feb2021, n-fold enhancement relative to EF-C
[7] = Feb2021, n-fold infectivity relative to EF-C
[8] = Feb2021, unrounded values of the 1.3 µM column
[9] = Feb2021 run, infectivity n-fold relative to virus alone
[10] = Feb2021 run, log10 of infectivity relative to EF-C
[11] = Feb2021 run, n-fold infectivity relative to EF-C
[12] = infectivity class (low / medium / high) of each library peptide, main list in c1-c6, same classes repeated in sub-lists of sequences containing the hydrophobicity/charge patterns P+,H0,P+,H0,P0,H0,P0, P+,H0,P0,H0,P0,H0,P0, P+,H0,P0,H0
[13] = log10 of HIV-1 infection of TZM-bl cells relative to EF-C, Fig S15 source data, asymmetric std dev errors
[14] = category 1 or 0 from count rate, key not given
[15] = derived count rate of scattered light, mean, std deviation in next column
[16] = derived count rate of scattered light, mean, std deviation in separate column
[17] = Feb2021, log10 of infectivity relative to EF-C
[18] = infectivity class (low / medium / high) of the peptide in the sequence-pattern analysis, Fig. S22-A4, class limits not given
[19] = Feb2021, figures match the 1.3 µM column
[20] = Feb2021, infectivity relative to virus only
[21] = derived count rate of scattered light

Row | Substance | Zeta category ( +1 = if > 4 mV;-1 = if < -4 mV; 0 = -4mV to 4 mV) [1] | Zeta category ( +1 = if > 4 mV;-1 = if < -4 mV; 0 = -4mV to 4 mV) ([1]; category from zeta potential) | Zeta Pot. / mV ([1]; mean, Std Zeta in next column) | Zeta Pot. / mV ([1]; mean, Std in separate column) | Zeta-pot. / mV [1] | n-fold to virus (Feb2021) [2, 4] | Log10 of Rel to EFC (Feb2021) [2, 5] | Rel-to EFC (Feb-2021) [2, 6] | Rel-to EFC (Feb-2021) [2, 7] | Absolute Infectivity / RLU /s (Feb2021) [2, 8] | n-fold to virus (Feb2021) [2, 9] | Log10 of Rel to EFC (Feb2021) [2, 10] | Rel-to EFC (Feb-2021) [2, 11] | infectivity [2, 12] | Log10 Inf. rel. to EF-C [2, 13] | Zeta Count Rate Category ([3]; category 1/0, no key printed) | Zeta Count Rate Category [3, 14] | Zeta Count Rate / kcps [3, 15] | Zeta Count Rate / kcps [3, 16] | Log10 of Rel to EFC (Feb2021) [2, 17] | also measured
1 | QCKAKAQA [CK24] | 0 (0 = -4mV to 4 mV) | 0 (0 = -4mV to 4 mV) | 0.674 mV | 0.674 mV | 0.674 mV | 1.061 | -1.598 | 0.02526 | 0.02526 | 806.7 RLU /s | 1.061 | -1.598 | 0.02526 | low | -1.598 | 1 | 1 | 1319.1 kcps | 1319.1 kcps |  | Rel-to EFC ([2]; Fig S8 panels B, D, infectivity enhancement relative to EF-C): 0.02526; n-fold to virus ([2]; Fig S8 panels B, D, infectivity n-fold relative to virus alone): 1.0614; Log Count Rate ([3]; Fig S8 panels B, D, log of derived count rate): 3.12; Count Rate ([3]; Fig S8 panels B, D, turbidity, derived count rate of scattered light): 1319.1
2 | MKIKIQINM [TM41] | 1 (+1 = if > 4 mV) |  | 9.13 mV |  | 9.13 mV | 11.48 |  |  | 0.2732 | 15000 RLU /s |  |  |  | medium | -0.5635 | 1 |  | 981.3 kcps |  | -0.5635 | 
3 | QCKFKFQF [CK9] | 1 (+1 = if > 4 mV) | 1 (+1 = if > 4 mV) | 12.2 mV | 12.2 mV | 12.2 mV | 32.23 | -0.1152 | 0.767 | 0.767 | 20303.33333 RLU /s | 32.23 | -0.1152 | 0.767 |  | -0.1152 | 1 | 1 | 2669 kcps | 2669 kcps |  | infectivity [2, 18]: high
4 | KFKFQFNMW |  |  |  |  |  |  |  |  |  |  |  |  |  |  |  |  |  |  |  |  | Zeta-Pot. [1]: 22.6; Zeta-Potential / mV ([1]; zeta-potential of peptide, source data of Figure 2C): 16.22 mV; Zeta-Potential / mV ([1]; zeta-potential of the peptide assemblies, mean, Figure 3A source data): 22.6 mV; Rel-EFC ([2]; 1.3 µM peptide, infection relative to EF-C (QCKIKQIINMWQ = 1)): 0,45; Log10 Infection Rel EFC ([2]; 1.3 µM peptide, log10 of infection relative to EF-C): -0,35; Log Infectivity ([2]; Fig. S7 panel A (plotted against β-sheet content), Log10 infection relative to EF-C, TZM-bl cells, asymmetric std dev errors): -0.3503; Log10 Infection Rel EF-C ([2]; Log10 of infection rate relative to EF-C, Figure 3A source data): -0.35; Log10 Infection Rel EF-C ([2]; infection rate relative to EF-C, log10, data of Figure 2D): -0.3503; Log10 Infection Rel EF-C ([2]; infection rate relative to EF-C, log10, source data of Figure 2C): -0.3503; Log10 of Rel to EFC (Feb2021) ([2]; Log10 of infection relative to EF-C, all peptides of FigS16): -0.35; Abs. Inf. ([2]; absolute infection signal, HIV-1 on TZM-bl cells, β-galactosidase luminescence): 6690; Log10 Inf. rel. to EF-C ([2]; log10 of HIV-1 infection of TZM-bl cells relative to EF-C (EF-C = 0)): -0.3503; Log10 Count Rate ([3]; Log10 of derived count rate of scattered light (turbidity)): 2.785; Count Rate / kcps ([3]; derived count rate of scattered light at 633 nm, 173°, from zeta-potential measurement, 0.1 mg/mL in 1 mM KCl after 1 d at 1 mg/mL in PBS, turbidity / microscopic aggregation, mean of triplicate): 610 kcps; Log10 Count Rate ([3]; turbidity, Log10 of derived count rate of scattered light, Figure 3A source data): 2.785; Log10 Count Rate ([3]; turbidity, log10 of derived count rate of scattered light): 2.785
5 | KLKLQLL [TG4 / (KM2)] | -1 (-1 = if < -4 mV) |  | -4.93 mV |  | -4.93 mV |  | -2.156 |  | 0.006983 |  |  |  |  | low | -2.156 |  |  | 72.67 kcps |  |  | Zeta Pot. / mV [1]: -4.93 mV; Zeta category ( +1 = if > 4 mV;-1 = if < -4 mV; 0 = -4mV to 4 mV) ([1]; category derived from the zeta potential): -1 (-1 = if < -4 mV); Absolute Infectivity / RLU /s (Feb2021) [2, 19]: 163.3 RLU /s; Rel-to EFC (Feb-2021) ([2]; Feb2021, infectivity enhancement relative to EF-C): 0.006983; n-fold to virus (Feb2021) [2, 20]: 0.2934; infectivity [2, 18]: low; Zeta Count Rate Category ([3]; category 1 / 0, no key given): 0; Zeta Count Rate Category ([3]; category 1 or 0 derived from the count rate, key not given): 0; Zeta Count Rate / kcps [3, 21]: 72.67 kcps
6 | CKYKYQY [KB2] | 0 (0 = -4mV to 4 mV) |  | 1.49 mV |  | 1.49 mV | 1.711 |  |  | 0.04071 | 1083 RLU /s |  |  |  | low | -1.3903 | 1 |  | 1061 kcps |  | -1.39 | 
7 | CEIEIQI [AR2/ TM142] | -1 (-1 = if < -4 mV) |  | -26.1 mV | -26.1 mV | -26.1 mV | 1.173 |  |  | 0.02791 | 633.3 RLU /s |  |  |  | low | -1.554 | 0 |  | 51.97 kcps |  | -1.554 | Rel-to EFC (Feb-2021) ([2]; infectivity enhancement relative to EF-C (=1), Feb2021 run): 0.02791; n-fold to virus (Feb2021) ([2]; infectivity n-fold relative to virus only, Feb2021 run): 1.173; Log10 of Rel to EFC (Feb2021) ([2]; log10 of infectivity relative to EF-C, Feb2021 run): -1.554; Zeta Count Rate / kcps ([3]; derived count rate from zeta measurement, mean): 51.97 kcps; Zeta Count Rate Category ([3]; key not given): 0
8 | CKIKQIINM [BL1] | 1 (+1 = if > 4 mV) | 1 (+1 = if > 4 mV) | 12.9 mV | 12.9 mV | 12.9 mV |  | -0.3035 | 0.4971 | 0.4971 |  | 20.89 | -0.3035 | 0.4971 | medium | -0.3035 |  | 1 | 9058 kcps | 9058 kcps |  | Zeta Pot. / mV [1]: 12.9 mV; Absolute Infectivity / RLU /s (Feb2021) [2, 19]: 11280 RLU /s; n-fold to virus (Feb2021) [2, 20]: 20.89; Zeta Count Rate Category ([3]; category 1 / 0, no key given): 1; Zeta Count Rate / kcps [3, 21]: 9058 kcps
